What is called Ki is the equilibrium dissociation constant of an inhibitor or competing ligand from its target. Read a high Ki as weaker binding.

Test [1] deals with T1, Adenosine receptor A1 (Cavia porcellus, UniProt P47745).
T1 sequence (P47745 whole entry): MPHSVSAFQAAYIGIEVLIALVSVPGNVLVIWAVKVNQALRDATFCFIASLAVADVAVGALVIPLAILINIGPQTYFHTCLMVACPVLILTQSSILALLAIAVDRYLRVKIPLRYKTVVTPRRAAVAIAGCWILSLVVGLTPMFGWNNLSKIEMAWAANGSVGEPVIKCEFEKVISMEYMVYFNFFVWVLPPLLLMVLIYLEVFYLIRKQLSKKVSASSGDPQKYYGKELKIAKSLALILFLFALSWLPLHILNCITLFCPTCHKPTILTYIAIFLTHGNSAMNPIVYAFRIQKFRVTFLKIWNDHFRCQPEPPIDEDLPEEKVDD
The test can be described thus: Binding affinity against Adenosine A1 receptor from guinea pig forebrain membranes by N6-[3H]- cyclohexyladenosine displacement.

Test [2] has as its target Adenosine A2 receptor (Rattus norvegicus, UniProt P29276+P30543). The test can be described thus: Binding affinity at Adenosine A2 receptor from rat striatal membranes by N-[3H] ethyladenosin-5'- uronamide displacement.
Test [3] relates to Mus musculus. Description: Acquisition time in (R)-PIA) induced avoidance test (performed in mice) for antagonistic activity after p.o. administration of 0.31 mg/kg. It is filed as functional. As to conditions: route oral.
In test [4] the test system is Mus musculus. The test can be described thus: Acquisition time in (R)-PIA) induced avoidance test (performed in mice) for antagonistic activity after p.o. administration of 1.25 mg/kg. As to conditions: route oral. It is filed as functional.
For test [5], the system named is Mus musculus. Description: Acquisition time in (R)-PIA) induced avoidance test (performed in mice) for antagonistic activity after peroral administration of 20 mg/kg. It is filed as functional. The conditions noted are these: route oral.
The subject of test [6] is Mus musculus. Description: Retention time in (R)-PIA) induced avoidance test (performed in mice) for antagonistic activity after p.o. administration of 1.25 mg/kg. It is filed as functional, organism-based. On the set-up: dose 1.25 mg/kg.
The test system of test [7] is Mus musculus. Description: Retention time in (R)-PIA) induced avoidance test (performed in mice) for antagonistic activity after peroral administration of 20 mg/kg. It is filed as functional, organism-based. On the set-up: dose 20 mg/kg.
In test [8] the test system is Mus musculus. Description: Retention time in (R)-PIA) induced avoidance test (performed in mice) for antagonistic activity after peroral administration of 5 mg/kg. Also noted: dose 5 mg/kg. It is filed as functional, organism-based.
For test [9], the system named is Mus musculus. Description: Retention time in (R)-PIA) induced avoidance test (performed in mice) for antagonistic activity after peroral administration of 0.31 mg/kg. It is filed as functional, organism-based. Also noted: dose 0.31 mg/kg.
Test [10] has as its system Rattus norvegicus. Description: Acquisition time in Scopolamine induced avoidance test (performed in rat) for antagonistic activity after peroral administration of 1.25 mg/kg. The class given is functional. The conditions noted are these: route oral.
Test [11] deals with Rattus norvegicus. The test can be described thus: Acquisition time in Scopolamine induced avoidance test (performed in rat) for antagonistic activity after peroral administration of 20 mg/kg. The class given is functional. The conditions noted are these: route oral.
Test [12] deals with Rattus norvegicus. The test can be described thus: Acquisition time in Scopolamine induced avoidance test (performed in rat) for antagonistic activity after p.o. administration of 0.08 mg/kg. The conditions noted are these: route oral. The class given is functional.
The subject of test [13] is Rattus norvegicus. Description: Acquisition time in Scopolamine induced avoidance test (performed in rat) for antagonistic activity after p.o. administration of 0.31 mg/kg. The class given is functional. The conditions noted are these: route oral.
In test [14] the test system is Rattus norvegicus. The test can be described thus: Acquisition time in Scopolamine induced avoidance test (performed in rat) for antagonistic activity after p.o. administration of 5 mg/kg. The class given is functional. The conditions noted are these: route oral.
In test [15] the test system is Rattus norvegicus. The test can be described thus: Retention time in Scopolamine induced avoidance test (performed in […]) for antagonistic activity after peroral administration of 5 mg/kg. The class given is functional, organism-based. Also noted: dose 5 mg/kg.
Test [16] has as its system Rattus norvegicus. The test can be described thus: Retention time in Scopolamine induced avoidance test (performed in rat) for antagonistic activity after p.o. administration of 0.08 mg/kg. The class given is functional, organism-based. On the set-up: dose 0.08 mg/kg.
The subject of test [17] is Rattus norvegicus. The test can be described thus: Retention time in Scopolamine induced avoidance test (performed in rat) for antagonistic activity after p.o. administration of 0.31 mg/kg. The class given is functional, organism-based. Also noted: dose 0.31 mg/kg.
The test system of test [18] is Rattus norvegicus. Description: Retention time in Scopolamine induced avoidance test (performed in rat) for antagonistic activity after peroral administration of 1.25 mg/kg. It is filed as functional, organism-based. Also noted: dose 1.25 mg/kg.
Test [19] relates to Rattus norvegicus. Description: Retention time in Scopolamine induced avoidance test (performed in rat) for antagonistic activity after peroral administration of 20 mg/kg. It is filed as functional, organism-based. Also noted: dose 20 mg/kg.
In test [20] the test system is Mus musculus. Description: Acquisition time in (R)-PIA) induced avoidance test (performed in mice) for antagonistic activity after peroral administration of 5 mg/kg. The class given is functional. As to conditions: route oral.
For test [21], the system named is Mus musculus. The test can be described thus: Retention time in (R)-PIA) induced avoidance test (performed in mice) for antagonistic activity after peroral administration of 0.02 mg/kg.
In test [22] the test system is Mus musculus. The test can be described thus: Acquisition time in (R)-PIA) induced avoidance test (performed in mice) for antagonistic activity after peroral administration of 0.02 mg/kg. The conditions noted are these: route oral.
Test [23] concerns the target T2, Adenosine receptor A1 (Rattus norvegicus, UniProt P25099).
T2 sequence (P25099 whole entry): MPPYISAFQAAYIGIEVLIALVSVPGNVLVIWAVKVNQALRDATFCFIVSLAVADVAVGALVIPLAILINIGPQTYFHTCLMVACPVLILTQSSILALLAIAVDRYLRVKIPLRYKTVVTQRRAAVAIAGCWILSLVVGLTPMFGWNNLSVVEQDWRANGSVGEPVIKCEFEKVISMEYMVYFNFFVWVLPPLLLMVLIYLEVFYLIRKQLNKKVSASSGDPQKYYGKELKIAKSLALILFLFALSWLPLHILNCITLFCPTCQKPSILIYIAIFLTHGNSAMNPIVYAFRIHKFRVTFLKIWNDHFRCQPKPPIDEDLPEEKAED
Description: Tested for binding affinity against Adenosine A1 receptor from rat forebrain membranes, using N6-[3H]- cyclohexyladenosine as radioligand.

In test [24] the test system is Mus musculus. The test can be described thus: Acquisition time in (R)-PIA) induced avoidance test (performed in mice) for antagonistic activity after peroral administration of 0.08 mg/kg. The class given is functional. The conditions noted are these: route oral.
Test [25] concerns Mus musculus. The test can be described thus: Retention time in (R)-PIA) induced avoidance test (performed in mice) for antagonistic activity after peroral administration of 0.08 mg/kg. The class given is functional, organism-based. On the set-up: dose 0.08 mg/kg.
The test system of test [26] is Mus musculus. The test can be described thus: Acquisition time in (R)-PIA) induced avoidance test (performed in mice) for antagonistic activity after peroral administration of 1.25 mg/kg. The conditions noted are these: route oral. The class given is functional.
Test [27] concerns Mus musculus. The test can be described thus: Tested for locomotor activity after oral administration of 10 mg/kg for 120 min. It is filed as functional.
Test [28] concerns Mus musculus. The test can be described thus: Tested for locomotor activity after oral administration of […] for 120 min. The class given is functional.
For test [29], the system named is Mus musculus. Description: Tested for locomotor activity after oral administration of 5 mg/kg for 120 min. The class given is functional.
Test [30] relates to Rattus norvegicus. The test can be described thus: Acquisition time in Scopolamine induced avoidance test (performed in rat) for antagonistic activity after peroral administration of 5 mg/kg. It is filed as functional. As to conditions: route oral.
The subject of test [31] is Rattus norvegicus. Description: Acquisition time in Scopolamine induced avoidance test (performed in rat) for antagonistic activity after peroral administration of 0.08 mg/kg. The class given is functional. The conditions noted are these: route oral.

As for `CCCn1c(=O)c2[nH]c(C3CCC(=O)C3)nc2n(CCc2ccc(N)cc2)c1=O` (stereo unspecified), in test [1], the affinity, expressed as Ki, was 23 nM.

`CCCn1c(=O)c2nc(C34CC5CC(CC3C5)C4)[nH]c2n(CCc2ccc(N)cc2)c1=O` showed a Ki in test [2] of over 100000 nM. The Acquisition time was 14.8 s in [3]; 20.3 s in test [4]; 14.7 s in test [5]; 15.3 s in test [10]; 18.3 s in test [11]; 12 s in test [12]. For the same molecule, the Acquisition time turned out to be 8.3 s in test [13], 11.9 s in [14], 14.7 s in test [20] and 18.1 s in [22]. The Retention time worked out at 168 s in test [6]; 98.7 s in [7]; 92.5 s in test [8]; 60.3 s in test [9]; 182 s in test [15]; 20.5 s in test [16]. For the same molecule, the Retention time in [17] was determined as 95.9 s; in test [18], 136 s; in test [19], 232 s; in test [21], 36 s.

The molecule `CCCN1C(=O)N2C[C@@H](CC)N=C2c2[nH]c(C34CC5CC(CC3C5)C4)nc21` returned a Ki in test [23] of 0.56 nM. Also, the Acquisition time in [24] was 35.1 s; in test [3] it was 15.9 s; in test [4] it was 16.5 s; in test [10] it was 20.1 s; in test [11] it was 17.2 s; in test [12] it was 17.3 s. Besides, the Acquisition time in test [13] is listed as 14.1 s; in test [14], 14.4 s; in [20], 23.7 s; in test [22], 13.6 s. In addition, the Retention time in [6] came out at 326 s; in test [8], 186 s; in [25], 156 s; in test [9], 192 s; in test [15] it was 42.1 s; in test [16] it was 27.1 s. Moreover, the Retention time was determined as 74.1 s in test [17], 80.9 s in test [18], 76.6 s in test [19] and 16.1 s in test [21].

Molecule `CCCn1c(=O)c2[nH]c(C(C3CC3)C3CC3)nc2n(CCC)c1=S` gave a Ki in [1] of 6.1 nM.

`CCCn1c(=O)c2nc(C3CC4CCCC4C3)[nH]c2n(CCC)c1=O` (stereo unspecified) displayed a Ki in test [23] of 0.75 nM. In addition, the Acquisition time in [24] amounted to 24 s; in test [3], 23.3 s; in test [4] it was 14.5 s; in test [10], 9.5 s; in test [11], 9.9 s; in [12], 10.8 s. In addition, the Acquisition time in test [13] is given as 11.1 s; in test [14], 11.1 s; in test [20], 42.7 s; in test [22] it was 13.4 s. Further, the Retention time worked out at 317 s in [6]; 384 s in test [8]; 83.2 s in test [25]; 140 s in [9]; 22.6 s in [15]; 30.7 s in [16]. Besides, the Retention time worked out at 29.6 s in [17], 18 s in test [18], 35.1 s in test [19] and 18.5 s in test [21].

As for `CCCn1c(=O)c2[nH]c(C34CC5CC(CC(C5)C3)C4)nc2n(CCC)c1=O`, the Ki in test [23] came out at 1.5 nM.

In the case of `CCCn1c(=O)c2nc(C34CC5CC(CC(C5)C3)C4)[nH]c2n(CCC)c1=O`, the Acquisition time is 19.1 s in [24]; 19.6 s in [3]; 19.8 s in test [4]; 12.8 s in test [10]; 8.4 s in test [11]; 11 s in [12]. The Acquisition time in [13] came out at 16.6 s; in test [14], 11.7 s; in test [20] it was 13.7 s; in test [22], 10.1 s. Also, the Retention time in test [6] turned out to be 490 s; in test [8], 221 s; in [25] it was 122 s; in test [9] it was 302 s; in test [15], 16.3 s; in [16], 34.8 s. The Retention time in test [17] was found to be 21.3 s; in test [18], 14.1 s; in test [19] it was 35 s; in [21] it was 17.6 s.

Consider `COc1cc(/C=C/c2nc3c(c(=O)n(C)c(=O)n3C)n2C)cc(OC)c1OC`, for which the Acquisition time in [3] was 22.1 s; in test [4] it was 24.7 s; in test [5], 21 s; in test [10], 26.6 s; in [11], 13.2 s; in test [12], 9.9 s. Besides, the Acquisition time in test [13] is recorded as 21.3 s; in test [14], 11.3 s; in [20] it was 33.8 s. In addition, the Retention time in test [6] worked out at 23 s; in test [7], 74.9 s; in test [8] it was 49.9 s; in test [9], 63.8 s; in test [15] it was 31.4 s; in test [16] it was 28.9 s. Moreover, the values for the Retention time in test [17], in [18] and in [19] were 36.3 s, 33.7 s and 26.8 s, respectively.

Turning to `Cn1c(=O)c2nc[nH]c2n(C)c1=O.O` [THEOPHYLLINE], the Acquisition time in test [24] is 30.8 s; in test [3], 35.8 s; in test [26], 16.2 s; in test [10], 11.1 s; in test [11] it was 10.6 s; in test [30], 10.8 s. Besides, the Acquisition time was found to be 10.6 s in test [31], 12.2 s in test [13] and 20.3 s in test [20]. Besides, the Locomotor activity in test [27] amounted to 11031 Counts; in test [28], 5914 Counts; in test [29], 7682 Counts.
